Test results taken from ChEMBL document CHEMBL4513161, “CO-ADD screening of MMV (CH) - Pandemic Response Box” (2021).
Values after ≈ are worked out from the molar mass of the structure shown.

Tests used:
[1] = system: HEK293; test: cells; assay type: functional, Homo sapiens, ATCC CRL1573; settings: ASSAY_TEST Inhibition of Cell Viability, detection method Resazurin, Fluorescence (ex560/em590), MEDIA DMEM with 10% FBS, plate type 384well, TC, CORNING #3712, time 18 hr, read-out: CC50
[2] = system: Pseudomonas aeruginosa; test: Antibacterial activity against Pseudomonas aeruginosa PAO397 [PAO1 d(mexAB-oprM) d(mexCD-oprJ) d(mexEF-oprN) d(mexJKL) d(mexXY) d(opmH)] (CO-ADD:GN_211); MIC in CAMBH media using NBS plates, by OD(600); assay type: functional; settings: ASSAY_TEST Inhibition of Bacterial Growth, detection method Absorption (OD600), MEDIA CAMHB, plate type 384well, CORNING #3640, time 18 hr
[3] = system: Staphylococcus aureus; settings: ASSAY_TEST Inhibition of Bacterial Growth; detection method Absorption (OD600); MEDIA CAMHB; plate type 384well; NBS; CORNING #3640; time 18 hr
Description: Antibacterial activity against Staphylococcus aureus MRSA ATCC 43300 (CO-ADD:GP_020); MIC in CAMBH media, using NBS plates, by OD(600)

[4] = system: Escherichia coli; settings: ASSAY_TEST Inhibition of Bacterial Growth; detection method Absorption (OD600); MEDIA CAMHB; plate type 384well; NBS; CORNING #3640; time 18 hr
Description: Antibacterial activity against Escherichia coli ATCC 25922 (CO-ADD:GN_001); MIC in CAMBH media using NBS plates, by OD(600)

[5] = system: Klebsiella pneumoniae; settings: ASSAY_TEST Inhibition of Bacterial Growth; detection method Absorption (OD600); MEDIA CAMHB; plate type 384well; NBS; CORNING #3640; time 18 hr
Description: Antibacterial activity against Klebsiella pneumoniae MDR ATCC 70063 (CO-ADD:GN_003); MIC in CAMBH media using NBS plates, by OD(600)

[6] = system: Pseudomonas aeruginosa; settings: ASSAY_TEST Inhibition of Bacterial Growth; detection method Absorption (OD600); MEDIA CAMHB; plate type 384well; NBS; CORNING #3640; time 18 hr
Description: Antibacterial activity against Pseudomonas aeruginosa ATCC 27853 (CO-ADD:GN_042); MIC in CAMBH media using NBS plates, by OD(600)

[7] = system: Acinetobacter baumannii; settings: ASSAY_TEST Inhibition of Bacterial Growth; detection method Absorption (OD600); MEDIA CAMHB; plate type 384well; NBS; CORNING #3640; time 18 hr
Description: Antibacterial activity against Acinetobacter baumannii ATCC 19606 (CO-ADD:GN_034); MIC in CAMBH media using NBS plates, by OD600

[8] = system: Candida albicans; settings: ASSAY_TEST Inhibition of Fungal Growth; detection method Absorption (OD530); plate type 384well; NBS; CORNING #3640
Description: Antifungal activity against Candida albicans ATCC 90028 (CO-ADD:FG_001); MIC in YNB media using NBS plates, by OD630

[9] = system: Cryptococcus neoformans
Description: Antifungal activity against Cryptococcus neoformans H99 ATCC 208821 (CO-ADD:FG_002); MIC in YNB media using NBS plates, by Resazurin OD(600-570)

[10] = Homo sapiens, ATCC CRL1573, HEK293

Nc1nc(=O)[nH]cc1F [FLUCYTOSINE]
CC50 [1, 10]: > 20 µM
MIC [2]: > 20 µM
MIC [3]: >20 µM
MIC [4]: >20 µM
MIC [5]: >20 µM
MIC [6]: >20 µM
MIC [7]: >20 µM
MIC [8]: 1.25 µM (≈ 0.161 µg/mL)
MIC [9]: 1.25 µM (≈ 0.161 µg/mL)

CO[C@@]1(NC(=O)Cc2cccs2)C(=O)N2C(C(=O)O)=C(COC(N)=O)CS[C@@H]21 [CEFOXITIN]
CC50 [1, 10]: > 20 µM
MIC [2]: > 20 µM
MIC [3]: >20 µM
MIC [4]: 5 µM (≈ 2.14 µg/mL)
MIC [5]: >20 µM
MIC [6]: >20 µM
MIC [7]: >20 µM
MIC [8]: >20 µM
MIC [9]: > 20 µM

CC(=O)Oc1ccccc1C(=O)Nc1ncc([N+](=O)[O-])s1 [NITAZOXANIDE]
CC50 [1, 10]: 8.59 µM
MIC [2]: > 20 µM
MIC [3]: >20 µM
MIC [4]: >20 µM
MIC [5]: >20 µM
MIC [6]: >20 µM
MIC [7]: >20 µM
MIC [8]: >20 µM
MIC [9]: > 20 µM

COc1cc(Cc2cnc(N)nc2N)cc(OC)c1OC [TRIMETHOPRIM]
CC50 [1]: > 20 µM
MIC [2]: 5 µM (≈ 1.45 µg/mL)
MIC [3]: 5 µM (≈ 1.45 µg/mL)
MIC [4]: 2.5 µM (≈ 0.726 µg/mL)
MIC [5]: 5 µM (≈ 1.45 µg/mL)
MIC [6]: 20 µM (≈ 5.81 µg/mL)
MIC [7]: >20 µM
MIC [8]: >20 µM
MIC [9]: > 20 µM

CC(C)/N=c1\cc2n(-c3ccc(Cl)cc3)c3ccccc3nc-2cc1Nc1ccc(Cl)cc1 [CLOFAZIMINE]
CC50 [1, 10]: > 20 µM
MIC [2]: > 20 µM
MIC [3]: 20 µM (≈ 9.47 µg/mL)
MIC [4]: >20 µM
MIC [5]: >20 µM
MIC [6]: >20 µM
MIC [7]: >20 µM
MIC [8]: >20 µM
MIC [9]: > 20 µM
